melting point [°C]	SMILES
135 to 136	CCOC(=O)CCN1CCC(c2noc3cc(F)ccc23)CC1.O=C(O)/C=C/C(=O)O
171 to 173	COc1cc(C(C)=O)ccc1OCCCN1CCC(c2n[nH]c3ccccc23)CC1 [Example 14, 1-[4-[3-[4-(1H-Indazol-3-yl)-1-piperidinyl]propoxy]-3-methoxyphenyl]ethanone]
86 to 87	Fc1ccc2c(C3CCN(CC4COc5ccccc5O4)CC3)noc2c1 (stereo not drawn) [Example 91, 2-[4-(6-Fluoro-1,2-benzisoxazol-3-yl)-1-piperidinyl]methyl-1,4-benzodioxan]
202 to 204	COc1cc(C(C)=O)ccc1OCCCN1CCC(c2n[nH]c3cc(F)ccc23)CC1 [Example 28, 1-[4-[3-[4-(6-Fluoro-1H-indazol-3-yl)-1-piperidinyl]-propoxy]-3-methoxyphenyl]ethanone]
124 to 125	CC(=O)c1ccc(OCc2ccccc2)c(OC/C=C/CN2CCC(c3noc4cc(F)ccc34)CC2)c1 [Example 85, (E)-1-[3-[[4-[4-(6-Fluoro-1,2-benzisoxazol-3-yl)-1-piperidinyl]-2-butenyl]oxy]-4-benzyloxyphenyl]ethanone]
208 to 210	CC(=O)c1ccc(O)c(OC/C=C/CN2CCC(c3noc4cc(F)ccc34)CC2)c1.Cl
113 to 115	COc1cc(C(C)O)ccc1OCCCN1CCC(c2nsc3cc(F)ccc23)CC1 (stereo not drawn) [Example 145, 4-[3-[4-(6-Fluoro-1,2-benzisothiazol-3-yl)-1-piperidinyl]propoxy]-3-methoxy-alpha-methylbenzenemethanol]
131 to 132	O=C(O)/C=C/C(=O)O.OCCCCN1CCC(c2noc3cc(F)ccc23)CC1
229 to 231	Cl.O=C1[C@H]2CCCC[C@H]2C(=O)N1CCCCN1CCC(c2noc3cc(F)ccc23)CC1
98 to 100	COC(C)c1ccc(OCCCN2CCC(c3noc4cc(F)ccc34)CC2)c(O)c1 (stereo not drawn) [Example 139, 3-[1-[3-[4-(1-Methoxyethyl)-2-hydroxyphenoxyl]propyl]-4-piperidinyl]-6-fluoro-1,2-benzisoxazole]
154 to 156	COc1cc(C(C)=O)ccc1OCCN1CCN(c2n[nH]c3cc(Cl)ccc23)CC1 [Example 41, 1-[4-[2-[4-(6-Chloro-1H-indazol-3-yl)-1-piperazinyl]ethoxy]-3-methoxyphenyl]ethanone]
157 to 158	COCCN1CCC(c2noc3cc(F)ccc23)CC1.O=C(O)/C=C/C(=O)O
156 to 158	CC(C)(O)CCN1CCC(c2noc3cc(F)ccc23)CC1.O=C(O)/C=C/C(=O)O
115 to 117	Nc1cccc(OCCCN2CCC(c3noc4cc(F)ccc34)CC2)c1 [Example 71, 3-[3-[4-(6-Fluoro-1,2-benzisoxazol-3-yl)-1-piperidinyl]propoxy]aniline]
243 to 245	Fc1ccc2c(C3CCN(CCCCBr)CC3)noc2c1 [Example 114, 4-[4-(6-Fluoro-1,2-benzisoxazol-3-yl)-1-piperidinyl]butyl bromide]
142 to 143	CC(=O)OCCCCN1CCC(c2noc3cc(F)ccc23)CC1.O=C(O)/C=C/C(=O)O
108 to 110	CCCCCCCCCC(=O)NCCN1CCC(c2noc3cc(F)ccc23)CC1.O=C(O)/C=C/C(=O)O

melting point [°C]	SMILES
150 to 152	CCc1ccc(OCCCN2CCC(c3noc4cc(F)ccc34)CC2)cc1OC.Cl
154 to 155	CC(=O)OCCN1CCC(c2noc3cc(F)ccc23)CC1.O=C(O)/C=C/C(=O)O
144 to 146	O=C1c2ccccc2C(=O)N1CCCCN1CCC(c2noc3cc(F)ccc23)CC1 [Example 98, N-[4-[4-(6-Fluoro-1,2-benzisoxazol-3-yl)-1-piperidinyl]butyl]phthalimide]
109 to 111	COc1ccc(NC(C)=O)cc1OCCCN1CCC(c2nsc3cc(F)ccc23)CC1 [Example 74, N-[3-[3-[4-(6-Fluoro-1,2-benzisothiazol-3-yl)-1-piperidinyl]propoxy]-4-methoxyphenyl]acetamide]
131 to 132	Fc1ccc2c(C3CCN(CCN4CCOCC4)CC3)noc2c1 [Example 116, N-[2-[4-(6-Fluoro-1,2-benzisoxazol-3-yl)-1-piperidinyl]ethyl]morpholine]
234 to 237	Cl.Cl.NCCCCN1CCC(c2noc3cc(F)ccc23)CC1
91 to 93	COc1cc(C(C)=O)ccc1OC/C=C/CN1CCC(c2noc3cc(F)ccc23)CC1 [Example 81, (E)-1-[4-[[4-[4-(6-Fluoro-1,2-benzisoxazol-3-yl)-1-piperidinyl]-2-butenyl]oxy]-3-methoxyphenyl]ethanone]
138 to 140	Cc1ccc2c(c1)C(=O)N(CCN1CCC(c3noc4cc(F)ccc34)CC1)C2=O [Example 157, N-[2-[4-(6-Fluoro-1,2-benzisoxazol-3-yl)-1-piperidinyl]ethyl]-4-methylphthalimide]
109 to 110	CCCCCCCCCC(=O)OCCCCN1CCC(c2noc3cc(F)ccc23)CC1.O=C(O)/C=C/C(=O)O [4-[4-(6-Fluoro-1,2-benzisoxazol-3-yl)-1-piperidinyl]butyl decanoate fumarate]
231 to 234	Cl.Cl.NCCCN1CCC(c2noc3cc(F)ccc23)CC1 [1-(3-Aminopropyl)-4-(6-fluoro-1,2-benzisoxazol-3-yl)-piperidine dihydrochloride]
161 to 162	Fc1ccc2c(C3CCN(CCC4OCCCO4)CC3)noc2c1.O=C(O)/C=C/C(=O)O
116 to 118	CC(=O)OCCNCCN1CCC(c2noc3cc(F)ccc23)CC1.O=C(O)/C=C/C(=O)O
118 to 120	CC(=O)OC[C@H](C)CN1CCC(c2noc3cc(F)ccc23)CC1.O=C(O)/C=C/C(=O)O
152 to 154	CC(=O)c1ccc2c(c1)oc(=O)n2CCCN1CCC(c2noc3cc(F)ccc23)CC1 [Example 94, N-[3-[4-(6-Fluoro-1,2-benzisoxazol-3-yl)-1-piperidinyl]propyl]-6-acetyl-2-benzoxazolinone]
163 to 164	O=C1c2c(Cl)ccc(Cl)c2C(=O)N1CCN1CCC(c2noc3cc(F)ccc23)CC1 [Example 153, N-[2-[4-(6-Fluoro-1,2-benzisoxazol-3-yl)-1-piperidinyl]ethyl]-3,6-dichlorophthalimide]
150 to 152	CC(=O)c1ccc(NCCCN2CCC(c3noc4cc(F)ccc34)CC2)c(O)c1 [Example 111, 1-[4-[3-[4-(6-Fluoro-1,2-benzisoxazol-3-yl)-1-piperidinyl]propylamino]-3-hydroxyphenyl]ethanone]
57 to 59	COc1cc(C(C)=O)ccc1OC/C=C\CN1CCC(c2noc3cc(F)ccc23)CC1 [(Z)-1-[4-[[4-[4-(6-Fluoro-1,2-benzisoxazol-3-yl)-1-piperidinyl]-2-butenyl]oxy]-3-methoxyphenyl]ethanone]

SMILES	melting point [°C]
COc1cc(C(C)=O)ccc1OCCCCN1CCC(c2nsc3ccccc23)CC1 [Example 46, 1-[4-[4-[4-(1,2-Benzisothiazol-3-yl)-1-piperidinyl]butoxy]-3-methoxyphenyl]ethanone]	78 to 80
COc1cc(C(C)=O)ccc1OCCCCN1CCC(c2n[nH]c3ccccc23)CC1 [Example 20, 1-[4-[4-[4(1H-indazol-3-yl)-1-piperidinyl]butoxy]-3-methoxyphenyl]ethanone]	133 to 135

Reference: patent USRE39198E1, “Heteroarylpiperidines, pyrrolidines and piperazines and their use as antipsychotics and analgesics” (Aventis Pharmaceuticals Inc., priority 1989, dated 2006)
